Measured values from PMC9330635, “Halogenated Pyrrolopyrimidines with Low MIC on Staphylococcus aureus and Synergistic Effects with an Antimicrobial Peptide” (Antibiotics, 2022).
Values after ≈ are worked out from the molar mass of the structure shown. Like-named read-outs stand apart in the source and are kept apart here.

Tests used:
E. coli TMPK [1] = biological target: T1, E. coli TMPK (Escherichia coli, UniProt P0A720); design: method as in doi:10.1002/slct.202103796; details: previous study; read-out: IC50 against E. coli TMPK; cited from earlier work
T1 construct: purchased ProFoldin TMK100KE
T1 sequence (P0A720 whole entry): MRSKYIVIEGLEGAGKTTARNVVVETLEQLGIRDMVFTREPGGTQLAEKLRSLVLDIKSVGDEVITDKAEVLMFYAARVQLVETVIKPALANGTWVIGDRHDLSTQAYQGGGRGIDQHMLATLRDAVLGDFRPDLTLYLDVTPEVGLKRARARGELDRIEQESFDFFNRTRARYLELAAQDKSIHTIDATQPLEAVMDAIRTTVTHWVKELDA

human EGFR = biological target: T2, human EGFR (Homo sapiens, UniProt P00533); assay: Enzymatic EGFR (ErbB1) inhibition, Z'-LYTE; type: biochemical; details: for inhibition at 0.1 µM: 100 nM compound, ATP equal to KM; for IC50: average of 2 titration curves, ATP equal to apparent KM, read-out: IC50 towards EGFR
T2 construct: purchased Invitrogen (ThermoFisher), assay service
T2 sequence (P00533 25-1210): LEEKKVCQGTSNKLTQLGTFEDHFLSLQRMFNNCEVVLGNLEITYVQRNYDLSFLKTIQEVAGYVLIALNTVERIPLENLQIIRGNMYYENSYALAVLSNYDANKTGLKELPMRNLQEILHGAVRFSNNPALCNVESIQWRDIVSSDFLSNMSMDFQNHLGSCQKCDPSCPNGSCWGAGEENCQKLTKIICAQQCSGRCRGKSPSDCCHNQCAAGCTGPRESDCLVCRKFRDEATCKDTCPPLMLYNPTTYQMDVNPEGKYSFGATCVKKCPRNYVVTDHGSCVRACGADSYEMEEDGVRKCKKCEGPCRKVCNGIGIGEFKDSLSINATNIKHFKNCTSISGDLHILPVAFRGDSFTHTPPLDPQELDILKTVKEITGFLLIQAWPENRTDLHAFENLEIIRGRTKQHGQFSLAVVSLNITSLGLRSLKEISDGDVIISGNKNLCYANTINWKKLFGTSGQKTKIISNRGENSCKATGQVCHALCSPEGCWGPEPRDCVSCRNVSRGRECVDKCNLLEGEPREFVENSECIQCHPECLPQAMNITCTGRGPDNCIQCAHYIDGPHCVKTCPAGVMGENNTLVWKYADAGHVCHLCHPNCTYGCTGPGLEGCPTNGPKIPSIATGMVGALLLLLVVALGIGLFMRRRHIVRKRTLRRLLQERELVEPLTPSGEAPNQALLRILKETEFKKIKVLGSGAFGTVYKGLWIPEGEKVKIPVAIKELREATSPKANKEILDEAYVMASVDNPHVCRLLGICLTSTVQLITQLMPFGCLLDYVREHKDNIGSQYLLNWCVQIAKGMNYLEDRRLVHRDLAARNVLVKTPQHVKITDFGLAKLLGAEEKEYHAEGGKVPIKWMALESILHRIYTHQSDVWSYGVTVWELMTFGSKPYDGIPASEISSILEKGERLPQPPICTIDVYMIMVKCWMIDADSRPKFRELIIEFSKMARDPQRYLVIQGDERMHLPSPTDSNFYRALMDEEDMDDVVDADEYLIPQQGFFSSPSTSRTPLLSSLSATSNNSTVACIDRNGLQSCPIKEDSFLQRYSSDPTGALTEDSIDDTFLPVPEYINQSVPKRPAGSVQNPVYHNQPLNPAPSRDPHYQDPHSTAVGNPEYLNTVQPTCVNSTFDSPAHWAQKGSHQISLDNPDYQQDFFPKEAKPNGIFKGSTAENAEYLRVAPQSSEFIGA
Method: The compounds were supplied in a 10 mM DMSO solution, and enzymatic EGFR (ErbB1) inhibition potency was determined by Invitrogen (ThermoFisher) using their Z’-LYTE® assay technology. The compounds were tested for their inhibitory activity at 100 nM in duplicates. The IC50 values that were reported for 1 and 5 are based on the average of 2 titration curves (20 data points), and were calculated from activity data with a four-parameter logistic model using SigmaPlot (Windows Version 12.0 from Systat Software, Inc., Palo Alto, CA, USA). Unless stated otherwise, the ATP concentration that was used was equal to apparent KM.

S. aureus = assay: MIC towards S. aureus in combination with the peptide betatide; type: cell-based, Staphylococcus aureus; details: betatide 8 mg/L (half its MIC)
Method: The concentration of betatide was 8 mg/L, which corresponds to half the MIC concentration.
(§1) The MIC of compound 1–21 towards Escherichia coli (MG1655) and Staphylococcus aureus (ATCC29213) was determined following the standards that were recommended by the Clinical and Laboratory Standards Institute (CLSI) for the broth microdilution method. Briefly, the bacterial suspensions were adjusted to 0.5 McFarland standard (~1 × 10^8 colony forming units (CFU)/mL) and diluted 1:200 in Cation-Adjusted Mueller-Hinton Broth (CAMHB, […], […]). The suspension was subsequently added to polypropylene microtiter plates (100 µL/well, ~5 × 10^4 CFU/well) that were already prepared with different concentrations of the various halogenated fused pyrimidines (11 µL/well, two-fold serial dilutions). The plates were incubated at 37 °C overnight before inspection for visible growth and determination of the MIC values.

E. coli (MG1655) = assay: MIC by broth microdilution, E. coli; type: cell-based, Escherichia coli; details: for MIC: Escherichia coli, E. coli MG1655, broth microdilution
Method: (§2) In this study, we have, therefore, altered our strategy and used minimal inhibitory concentration assays to identify and improve antibacterial agents. A total of 10 pyrrolopyrimidines with variation of the 4-amino group were assayed for their MIC in E. coli (MG1655) and S. aureus (ATCC29213) using the broth microdilution method. Subsequently, the compounds were also counter-screened for their inhibition of human EGFR.
as §1

S. aureus (ATCC29213) = assay: MIC by broth microdilution, S. aureus; type: cell-based, Staphylococcus aureus; details: Staphylococcus aureus
Method: as §2, §1

[2] = test system: panel of 50 human kinases (EGFR most inhibited); assay: Kinase panel, Z'-LYTE, 50 human kinases; type: biochemical
Method: As the starting point of this study was the EGFR inhibitor PKI-166 (1), there is an obvious risk of kinase off-target effects for the bromo derivative 5. Therefore, we profiled 5 towards a panel of 50 human kinases. […] Based on our previous experience, it is assumed that the EGFR inhibiting activity of 5 is too low to cause in vivo effects.
The compounds were supplied in a 10 mM DMSO solution, and enzymatic kinase inhibition potency was determined by ThermoFisher (Invitrogen, Waltham, MA, USA) using their Z’-LYTE® assay technology, at 500 nM in duplicates. The ATP concentration that was used was equal to Km, except when this service was not provided, and other concentrations had to be used.

human TMPK = biological target: T3, human TMPK (Homo sapiens, UniProt P23919); assay: Human TMPK assay (ProFoldin kit); type: biochemical; details: enzymatic; read-out: IC50 towards human TMPK
T3 construct: purchased ProFoldin HTMK500KE
T3 sequence (P23919 1-212): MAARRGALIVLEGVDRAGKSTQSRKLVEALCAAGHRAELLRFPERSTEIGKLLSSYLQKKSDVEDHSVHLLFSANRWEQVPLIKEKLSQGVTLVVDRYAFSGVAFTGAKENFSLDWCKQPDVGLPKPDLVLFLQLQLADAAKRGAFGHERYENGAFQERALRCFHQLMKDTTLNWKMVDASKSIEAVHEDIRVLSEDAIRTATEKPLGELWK
Method: (§3) The inhibition of EcTMPK was determined by Profoldin using the E. coli Thymidylate Kinase Assay Kit Plus (ProFoldin, Catalog No. TMK100KE, Hudson, MA, USA), where dTMP was phosphorylated by ATP that was catalyzed by TMPK. The assay was run in 96-well black plates at 36 °C. The formation of ADP was measured by adding a fluorescent dye and measuring the fluorescence emission at 535 nm after excitation at 485 nm. The readout was corrected for emission from the assay cocktail and DMSO. An ADP control assay was also performed to correct for possible interference with ADP detection. Single-point inhibitions were measured at 8.3 µM inhibitor concentrations. The IC50-values were determined from a similar assay, where 2-fold dilution series from […] were used. The assay towards the human enzyme was run similarly but using the Human Thymidylate Kinase Assay Kit Plus-500 (Catalog Number: HTMK500KE, ProFoldin, Hudson, MA, USA).

E. coli TMPK [3] = biological target: T1, E. coli TMPK; assay: E. coli TMPK assay (ProFoldin kit); type: biochemical; details: enzymatic; read-out: IC50 towards E. coli TMPK
Method: as §3

[4] = ATCC29213, S. aureus, single agent (Table 3), read-out: Single Comp. MIC
[5] = S. aureus ATCC29213, broth microdilution, read-out: S. aureus MIC

SMILES	IC50 (E. coli TMPK [1])	inhibition at 0.1 µM (human EGFR)	IC50 (human EGFR)	Combination with Betatide MIC (S. aureus)	MIC (E. coli (MG1655))	Activity towards E. coli in culture (in words) (E. coli (MG1655); culture, MIC assay)	MIC (S. aureus (ATCC29213); [4])	MIC (S. aureus (ATCC29213); [5])	EGFR inhibition in kinase panel ([2]; 500 nM test concentration)	Inhibition of all the other kinases of the panel ([2]; 500 nM, 50 human kinases, other than EGFR)	IC50 (human TMPK)	IC50 (E. coli TMPK [3])
C[C@@H](Nc1ncnc2[nH]c(-c3ccc(O)cc3)cc12)c1ccccc1 [Compound 1, (R)-4-(4-((1-Phenylethyl)amino)-7H-pyrrolo[2,3-d]pyrimidin-6-yl)phenol, reference compound]	15 µM	100%	< 0.001 µM	8 µg/mL	> 128 µg/mL	did not possess any activity	64 µg/mL (≈ 194 µM)	64 µg/mL (≈ 194 µM)				
C[C@@H](Nc1ncnc2[nH]c(-c3ccc(O)cc3)cc12)c1ccc(Br)cc1 [Compound 5, (R)-4-(4-((1-(4-Bromophenyl)ethyl)amino)-7H-pyrrolo[2,3-d]pyrimidin-6-yl)phenol]		81%	0.025 µM	1 µg/mL	> 128 µg/mL		8 µg/mL (≈ 19.5 µM)	8 µg/mL (≈ 19.5 µM)	91%	very low inhibition	> 100 µM	5 µM
